The values that follow come from ChEMBL document CHEMBL3991601, “The target landscape of clinical kinase drugs” (Science, 2017).

Activity calls are given as the source filed them. For most assays here, no stated cut-off is given here; in the data, actives have a measured Kd and inactives only a lower limit.

The target in experiment [1] is T1, Serine/threonine-protein kinase D3 (Homo sapiens, UniProt O94806).
T1 sequence (O94806 whole entry): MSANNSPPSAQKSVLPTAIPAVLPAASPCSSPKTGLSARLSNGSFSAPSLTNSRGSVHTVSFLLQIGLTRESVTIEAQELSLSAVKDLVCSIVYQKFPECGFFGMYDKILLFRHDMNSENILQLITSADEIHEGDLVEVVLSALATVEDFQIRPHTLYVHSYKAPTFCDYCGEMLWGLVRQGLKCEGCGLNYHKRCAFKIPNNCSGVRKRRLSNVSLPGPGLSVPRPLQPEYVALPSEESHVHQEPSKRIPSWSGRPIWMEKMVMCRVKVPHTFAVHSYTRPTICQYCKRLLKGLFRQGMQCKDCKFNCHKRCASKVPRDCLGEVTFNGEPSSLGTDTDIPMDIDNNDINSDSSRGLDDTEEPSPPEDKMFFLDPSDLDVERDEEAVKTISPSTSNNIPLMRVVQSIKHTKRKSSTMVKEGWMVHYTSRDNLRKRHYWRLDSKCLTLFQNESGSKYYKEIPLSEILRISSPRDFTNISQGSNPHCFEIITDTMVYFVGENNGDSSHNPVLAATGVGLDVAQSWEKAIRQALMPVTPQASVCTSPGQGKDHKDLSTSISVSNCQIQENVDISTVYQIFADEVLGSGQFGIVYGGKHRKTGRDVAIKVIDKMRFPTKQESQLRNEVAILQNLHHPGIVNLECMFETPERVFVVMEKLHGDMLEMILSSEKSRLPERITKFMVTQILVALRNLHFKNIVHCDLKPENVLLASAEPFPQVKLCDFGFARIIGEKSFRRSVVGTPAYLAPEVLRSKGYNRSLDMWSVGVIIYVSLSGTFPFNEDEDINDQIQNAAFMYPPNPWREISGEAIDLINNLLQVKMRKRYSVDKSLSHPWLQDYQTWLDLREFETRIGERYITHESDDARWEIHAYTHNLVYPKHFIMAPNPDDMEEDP

The target of experiment [2] is T2, Mitogen-activated protein kinase kinase kinase 3 (Homo sapiens, UniProt Q99759).
T2 sequence (Q99759 whole entry): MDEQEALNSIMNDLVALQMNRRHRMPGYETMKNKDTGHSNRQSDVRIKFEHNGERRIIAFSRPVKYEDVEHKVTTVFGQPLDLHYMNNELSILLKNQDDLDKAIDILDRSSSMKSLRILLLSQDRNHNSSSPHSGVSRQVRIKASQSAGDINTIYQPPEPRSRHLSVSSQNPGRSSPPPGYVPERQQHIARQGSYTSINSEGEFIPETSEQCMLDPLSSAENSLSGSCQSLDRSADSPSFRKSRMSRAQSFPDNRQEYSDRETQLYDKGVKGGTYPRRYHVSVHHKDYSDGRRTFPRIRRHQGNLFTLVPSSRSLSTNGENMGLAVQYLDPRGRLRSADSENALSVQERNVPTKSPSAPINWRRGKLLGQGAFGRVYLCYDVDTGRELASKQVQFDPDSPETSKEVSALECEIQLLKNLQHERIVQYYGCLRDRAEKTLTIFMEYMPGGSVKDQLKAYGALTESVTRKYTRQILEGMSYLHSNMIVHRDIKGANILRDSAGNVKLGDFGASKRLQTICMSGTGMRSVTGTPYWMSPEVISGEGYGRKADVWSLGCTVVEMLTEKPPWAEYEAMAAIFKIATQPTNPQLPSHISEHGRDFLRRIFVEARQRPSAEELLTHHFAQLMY

For experiment [3], the target named is T3, Dual specificity mitogen-activated protein kinase kinase 6 (Homo sapiens, UniProt P52564).
T3 sequence (P52564 whole entry): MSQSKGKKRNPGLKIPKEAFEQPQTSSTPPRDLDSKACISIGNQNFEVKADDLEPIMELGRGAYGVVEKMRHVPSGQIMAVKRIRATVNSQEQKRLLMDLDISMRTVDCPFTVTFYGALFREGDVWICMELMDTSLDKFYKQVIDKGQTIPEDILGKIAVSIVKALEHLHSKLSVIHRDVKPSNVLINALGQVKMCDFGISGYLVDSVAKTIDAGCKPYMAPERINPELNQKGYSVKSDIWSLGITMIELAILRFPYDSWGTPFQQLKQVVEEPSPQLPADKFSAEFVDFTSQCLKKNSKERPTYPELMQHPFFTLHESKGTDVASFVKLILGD

For experiment [4], the target named is Maternal embryonic leucine zipper kinase (Homo sapiens, UniProt Q14680).
Chain of Maternal embryonic leucine zipper kinase (Q14680 whole entry): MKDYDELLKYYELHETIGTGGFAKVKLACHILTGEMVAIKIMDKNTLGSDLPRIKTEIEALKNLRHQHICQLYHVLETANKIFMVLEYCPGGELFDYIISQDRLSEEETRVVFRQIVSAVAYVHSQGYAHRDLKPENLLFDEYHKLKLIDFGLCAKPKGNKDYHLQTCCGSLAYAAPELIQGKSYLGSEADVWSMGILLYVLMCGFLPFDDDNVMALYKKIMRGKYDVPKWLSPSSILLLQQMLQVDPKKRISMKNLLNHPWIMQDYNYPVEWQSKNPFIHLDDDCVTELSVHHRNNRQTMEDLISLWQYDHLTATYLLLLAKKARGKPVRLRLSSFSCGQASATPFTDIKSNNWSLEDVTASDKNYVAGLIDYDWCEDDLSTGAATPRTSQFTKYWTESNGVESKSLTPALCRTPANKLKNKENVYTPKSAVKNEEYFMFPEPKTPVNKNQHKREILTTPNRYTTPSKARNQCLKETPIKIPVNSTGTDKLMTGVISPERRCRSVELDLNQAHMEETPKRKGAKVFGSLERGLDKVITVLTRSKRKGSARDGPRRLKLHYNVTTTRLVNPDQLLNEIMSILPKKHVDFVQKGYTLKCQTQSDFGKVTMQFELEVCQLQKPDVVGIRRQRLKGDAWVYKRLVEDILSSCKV
The next experiment deals with Actin-related protein 2 (Homo sapiens, UniProt P61160).
The target in experiment [5] is Ribosomal protein S6 kinase beta-1 (Homo sapiens, UniProt P23443).
Chain of Ribosomal protein S6 kinase beta-1 (P23443 whole entry): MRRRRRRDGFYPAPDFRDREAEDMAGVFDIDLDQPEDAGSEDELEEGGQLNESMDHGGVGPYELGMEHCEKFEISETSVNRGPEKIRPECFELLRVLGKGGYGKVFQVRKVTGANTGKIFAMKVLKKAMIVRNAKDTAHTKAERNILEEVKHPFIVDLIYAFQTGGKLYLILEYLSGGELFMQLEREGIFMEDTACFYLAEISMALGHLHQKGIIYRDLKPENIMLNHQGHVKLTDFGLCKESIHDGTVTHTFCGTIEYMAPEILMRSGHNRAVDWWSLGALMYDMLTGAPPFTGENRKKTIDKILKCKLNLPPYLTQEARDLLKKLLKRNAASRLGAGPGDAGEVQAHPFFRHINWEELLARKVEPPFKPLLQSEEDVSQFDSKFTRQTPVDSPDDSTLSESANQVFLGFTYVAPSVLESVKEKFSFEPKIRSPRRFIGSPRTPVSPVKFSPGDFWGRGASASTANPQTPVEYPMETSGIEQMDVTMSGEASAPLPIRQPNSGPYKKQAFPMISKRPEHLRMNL
Experiment [6] addresses Tyrosine-protein kinase Lyn (Homo sapiens, UniProt P07948).
The target in experiment [7] is Ribosomal protein S6 kinase alpha-5 (Homo sapiens, UniProt O75582).
Chain of Ribosomal protein S6 kinase alpha-5 (O75582 whole entry): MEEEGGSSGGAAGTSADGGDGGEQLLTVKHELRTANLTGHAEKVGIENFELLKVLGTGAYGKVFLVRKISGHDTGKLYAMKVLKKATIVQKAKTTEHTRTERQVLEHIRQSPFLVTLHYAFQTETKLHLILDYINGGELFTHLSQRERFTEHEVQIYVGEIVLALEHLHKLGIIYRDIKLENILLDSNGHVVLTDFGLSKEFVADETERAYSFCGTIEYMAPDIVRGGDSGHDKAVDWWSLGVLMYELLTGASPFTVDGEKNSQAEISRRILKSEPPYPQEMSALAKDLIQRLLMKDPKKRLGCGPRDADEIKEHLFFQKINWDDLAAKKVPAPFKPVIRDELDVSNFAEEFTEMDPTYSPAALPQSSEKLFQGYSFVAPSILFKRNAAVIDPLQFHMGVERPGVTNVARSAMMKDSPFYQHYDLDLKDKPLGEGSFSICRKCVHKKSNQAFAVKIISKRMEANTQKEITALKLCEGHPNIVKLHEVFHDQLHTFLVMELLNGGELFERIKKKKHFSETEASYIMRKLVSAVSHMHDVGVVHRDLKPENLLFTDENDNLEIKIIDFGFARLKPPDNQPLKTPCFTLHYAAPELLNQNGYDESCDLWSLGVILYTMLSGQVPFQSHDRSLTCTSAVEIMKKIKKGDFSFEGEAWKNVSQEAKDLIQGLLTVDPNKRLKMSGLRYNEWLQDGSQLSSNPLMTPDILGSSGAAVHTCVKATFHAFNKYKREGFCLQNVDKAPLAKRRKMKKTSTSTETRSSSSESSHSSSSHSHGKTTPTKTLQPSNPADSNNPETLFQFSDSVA
Experiment [8] addresses Tyrosine-protein kinase SYK (Homo sapiens, UniProt P43405).
Experiment [9] has as its target MAP/microtubule affinity-regulating kinase 3 (Homo sapiens, UniProt P27448).
The target in experiment [10] is Casein kinase II subunit alpha' (Homo sapiens, UniProt P19784).
Chain of Casein kinase II subunit alpha' (P19784 whole entry, the tested form may be a part): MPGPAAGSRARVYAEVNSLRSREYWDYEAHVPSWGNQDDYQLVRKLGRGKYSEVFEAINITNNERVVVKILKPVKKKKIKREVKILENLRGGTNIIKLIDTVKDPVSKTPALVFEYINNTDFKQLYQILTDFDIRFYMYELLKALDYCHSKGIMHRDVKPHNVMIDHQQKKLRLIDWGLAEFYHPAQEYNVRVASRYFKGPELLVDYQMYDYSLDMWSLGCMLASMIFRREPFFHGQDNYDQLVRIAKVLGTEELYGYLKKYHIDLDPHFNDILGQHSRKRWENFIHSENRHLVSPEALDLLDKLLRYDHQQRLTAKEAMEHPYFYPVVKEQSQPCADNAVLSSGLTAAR
The target in the next experiment is LIM domain kinase 2 (Homo sapiens, UniProt P53671).
Chain of LIM domain kinase 2 (P53671 whole entry, the tested form may be a part): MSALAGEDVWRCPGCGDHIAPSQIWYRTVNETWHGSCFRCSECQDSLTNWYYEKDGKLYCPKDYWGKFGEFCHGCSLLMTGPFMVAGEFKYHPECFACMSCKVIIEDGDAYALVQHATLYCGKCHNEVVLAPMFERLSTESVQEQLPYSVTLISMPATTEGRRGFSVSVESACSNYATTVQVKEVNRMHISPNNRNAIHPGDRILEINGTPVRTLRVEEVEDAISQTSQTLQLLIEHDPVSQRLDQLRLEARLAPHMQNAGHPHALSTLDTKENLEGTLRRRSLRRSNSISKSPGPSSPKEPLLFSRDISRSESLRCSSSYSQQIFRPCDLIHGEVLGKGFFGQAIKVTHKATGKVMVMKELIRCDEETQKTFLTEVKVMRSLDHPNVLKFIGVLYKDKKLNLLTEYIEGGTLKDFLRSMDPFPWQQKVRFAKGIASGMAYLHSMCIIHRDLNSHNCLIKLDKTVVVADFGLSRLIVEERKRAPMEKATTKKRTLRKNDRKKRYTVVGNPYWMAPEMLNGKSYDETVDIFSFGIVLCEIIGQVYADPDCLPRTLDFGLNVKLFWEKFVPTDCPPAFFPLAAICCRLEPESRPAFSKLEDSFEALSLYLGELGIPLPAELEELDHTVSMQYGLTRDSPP
In experiment [11] the target is Dual specificity mitogen-activated protein kinase kinase 1 (Homo sapiens, UniProt Q02750).
Chain of Dual specificity mitogen-activated protein kinase kinase 1 (Q02750 whole entry): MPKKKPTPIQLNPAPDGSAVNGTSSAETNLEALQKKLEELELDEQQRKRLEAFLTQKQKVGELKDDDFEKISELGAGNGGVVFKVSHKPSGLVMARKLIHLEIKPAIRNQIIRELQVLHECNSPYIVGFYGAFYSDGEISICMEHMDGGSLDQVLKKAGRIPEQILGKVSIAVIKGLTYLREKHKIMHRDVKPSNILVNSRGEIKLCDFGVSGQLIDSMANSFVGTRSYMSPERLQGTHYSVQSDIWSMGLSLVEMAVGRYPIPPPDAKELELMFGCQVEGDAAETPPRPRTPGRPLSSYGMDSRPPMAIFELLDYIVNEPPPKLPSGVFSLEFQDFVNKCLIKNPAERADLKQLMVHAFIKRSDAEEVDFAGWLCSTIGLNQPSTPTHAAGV

Chain of MAP/microtubule affinity-regulating kinase 3 (P27448 whole entry): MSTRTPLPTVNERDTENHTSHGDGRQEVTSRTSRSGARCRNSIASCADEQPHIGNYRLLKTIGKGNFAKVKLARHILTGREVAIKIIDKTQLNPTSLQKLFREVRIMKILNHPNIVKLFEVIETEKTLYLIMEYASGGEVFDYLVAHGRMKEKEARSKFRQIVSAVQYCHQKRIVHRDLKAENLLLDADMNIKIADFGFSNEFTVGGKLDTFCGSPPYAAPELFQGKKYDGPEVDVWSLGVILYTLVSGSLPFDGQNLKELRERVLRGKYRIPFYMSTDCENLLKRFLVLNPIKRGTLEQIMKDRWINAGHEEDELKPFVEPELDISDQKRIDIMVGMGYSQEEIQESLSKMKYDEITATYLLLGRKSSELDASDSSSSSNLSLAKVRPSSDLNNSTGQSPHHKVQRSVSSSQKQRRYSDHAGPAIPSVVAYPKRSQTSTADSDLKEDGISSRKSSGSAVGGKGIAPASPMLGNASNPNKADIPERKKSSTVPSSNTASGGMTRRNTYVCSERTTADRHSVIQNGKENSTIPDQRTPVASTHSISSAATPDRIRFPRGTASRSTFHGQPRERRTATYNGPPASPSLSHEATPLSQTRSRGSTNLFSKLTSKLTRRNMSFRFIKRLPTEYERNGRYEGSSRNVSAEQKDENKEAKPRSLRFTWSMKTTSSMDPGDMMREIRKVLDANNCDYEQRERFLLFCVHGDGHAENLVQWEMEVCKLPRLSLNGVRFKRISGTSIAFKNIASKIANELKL
Chain of Tyrosine-protein kinase Lyn (P07948 whole entry): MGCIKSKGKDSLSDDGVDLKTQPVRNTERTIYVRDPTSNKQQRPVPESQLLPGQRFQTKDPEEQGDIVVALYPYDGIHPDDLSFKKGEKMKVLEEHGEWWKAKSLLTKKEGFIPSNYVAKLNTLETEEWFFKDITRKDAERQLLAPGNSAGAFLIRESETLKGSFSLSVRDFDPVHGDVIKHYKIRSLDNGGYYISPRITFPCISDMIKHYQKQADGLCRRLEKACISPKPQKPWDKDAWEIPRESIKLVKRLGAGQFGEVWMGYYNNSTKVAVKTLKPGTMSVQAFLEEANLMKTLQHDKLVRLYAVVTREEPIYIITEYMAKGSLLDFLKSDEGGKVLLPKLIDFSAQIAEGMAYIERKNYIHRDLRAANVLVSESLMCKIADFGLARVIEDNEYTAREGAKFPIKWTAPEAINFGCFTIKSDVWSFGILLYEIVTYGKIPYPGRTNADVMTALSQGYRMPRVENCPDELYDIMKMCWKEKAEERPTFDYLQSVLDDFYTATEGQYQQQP

Turning to `O=c1sn(-c2cccc3ccccc23)c(=O)n1Cc1ccccc1` [TIDEGLUSIB], the Kd (in experiment [1]; in [2]; in experiment [3]; in experiment [4]; on Actin-related protein 2; in [5]) was > 30 µM (inactive) each time. Moreover, the Kd (in experiment [6]; in experiment [7]; in experiment [8]; in experiment [9]; in [10]; at LIM domain kinase 2) was > 30 µM (inactive) each time. For the same compound, in experiment [11], the Kd – broadly, the free concentration of one partner at which half of the binding sites on the other are occupied at equilibrium, for simple one-to-one binding – is > 30 µM (inactive).
Take `Cc1ccc(S(=O)(=O)Nc2nc3ccccc3nc2Nc2ccc3nsnc3c2)cc1`: the Kd (in [1]; in experiment [2]; in [3]; in experiment [4]; at Actin-related protein 2; in [5]) was > 30 µM (inactive) throughout. The Kd (in experiment [6]; in experiment [7]; in [8]; in experiment [9]; in experiment [10]; at LIM domain kinase 2) was > 30 µM (inactive) in each case. For the same compound, in [11], the Kd was > 30 µM (inactive).
With `Cn1cc(-c2ccc(F)c(C(F)(F)F)c2)nc1C1CCN(c2ncnc3[nH]ncc23)CC1` [LY-2584702], the Kd in experiment [1] is > 30 µM (inactive); in experiment [2], > 30 µM (inactive); in experiment [3], > 30 µM (inactive); in [4] it was > 30 µM (inactive); at Actin-related protein 2 it was > 30 µM (inactive); in experiment [5], 0.015 µM (active). The Kd (in experiment [6]; in [7]; in [8]; in [9]; in [10]; on LIM domain kinase 2) was > 30 µM (inactive) throughout. Further, in experiment [11], the Kd is > 30 µM (inactive).
`CN(C)C(=O)c1cc2cnc(Nc3ccc(N4CCNCC4)cn3)nc2n1C1CCCC1` [RIBOCICLIB]: the Kd (in experiment [1]; in experiment [2]; in [3]; in experiment [4]; on Actin-related protein 2; in [5]) was > 30 µM (inactive) each time. Also, the Kd (in experiment [6]; in [7]; in experiment [8]; in [9]; in [10]; at LIM domain kinase 2) was > 30 µM (inactive) each time. Besides, the Kd in experiment [11] was > 30 µM (inactive).
As for `O=C(Nc1ccc(-c2ccnc(Nc3ccc(N4CCOCC4)cc3)n2)cc1)C1CCCN1` (configuration not stated) [XL-019], the Kd was 2.96 µM (active) in experiment [1]; > 30 µM (inactive) in experiment [2]; > 30 µM (inactive) in [3]; > 30 µM (inactive) in experiment [4]; > 30 µM (inactive) on Actin-related protein 2; > 30 µM (inactive) in experiment [5]. Also, the Kd was > 30 µM (inactive) in [6]; > 30 µM (inactive) in [7]; > 30 µM (inactive) in experiment [8]; 1.61 µM (active) in [9]; 7.15 µM (active) in experiment [10]; > 30 µM (inactive) on LIM domain kinase 2. Also, the Kd in [11] is > 30 µM (inactive).
For the compound `CNC(=O)CN1CCC(Oc2cc3c(Nc4cccc(Cl)c4F)ncnc3cc2OC)CC1` [SAPITINIB], the Kd (in experiment [1]; in experiment [2]; in experiment [3]; in experiment [4]; at Actin-related protein 2; in experiment [5]) was > 30 µM (inactive) in each case. Besides, the Kd in [6] is 2.48 µM (active); in experiment [7], > 30 µM (inactive); in experiment [8], > 30 µM (inactive); in [9] it was > 30 µM (inactive); in [10] it was > 30 µM (inactive); at LIM domain kinase 2 it was > 30 µM (inactive). The Kd in [11] was > 30 µM (inactive).
In the case of `Cc1cc([C@@H](C)Nc2ccccc2C(=O)O)c2nc(N3CCOCC3)cc(=O)n2c1` [AZD-6482], the Kd (in [1]; in experiment [2]; in experiment [3]; in [4]; on Actin-related protein 2; in experiment [5]) was > 30 µM (inactive) each time. In addition, the Kd (in experiment [6]; in experiment [7]; in experiment [8]; in experiment [9]; in experiment [10]; on LIM domain kinase 2) was > 30 µM (inactive) each time. In addition, in [11], the Kd is > 30 µM (inactive).
On to `CCN1CCN(Cc2ccc(-c3cc4c(N[C@H](C)c5ccccc5)ncnc4[nH]3)cc2)CC1` [AEE-788], for which the Kd (in experiment [1]; in experiment [2]; in experiment [3]; in [4]; on Actin-related protein 2; in experiment [5]) was > 30 µM (inactive) each time. The Kd in [6] is > 30 µM (inactive); in [7], > 30 µM (inactive); in [8] it was > 30 µM (inactive); in experiment [9] it was > 30 µM (inactive); in [10], > 30 µM (inactive); at LIM domain kinase 2, 21.8 µM (active). The Kd in experiment [11] is > 30 µM (inactive).
On to `CN1N=C(N)c2cn([C@@H]3O[C@H](COP(=O)(O)O)[C@@H](O)[C@H]3O)c3ncnc1c23` [TRICIRIBINE PHOSPHATE], for which the Kd (in experiment [1]; in experiment [2]; in experiment [3]; in experiment [4]; at Actin-related protein 2; in experiment [5]) was > 30 µM (inactive) in each case. The Kd (in experiment [6]; in experiment [7]; in experiment [8]; in experiment [9]; in experiment [10]; at LIM domain kinase 2) was > 30 µM (inactive) in each case. In addition, the Kd in experiment [11] is > 30 µM (inactive).
